One block for each compound: values may come before it. The source made the active and inactive calls.
Columns and labels:
[1] = HGIII-sPLA2 enzyme inhibition potency – biochemical, QFRET, IC50, dose response (AID 743457);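 further: green fluorescence rise as the enzyme cleaves BODIPY PC-A2 in liposomes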
[2] = target: T1, Rac GTPase-activating protein 1 (Homo sapiens, UniProt Q9H0H5); assay: blockers of MgcRacGAP-driven Rac1 GTP hydrolysis – biochemical, ADP Hunter fluorescence, primary and confirmatory, confirmation (AID 624330); assay type: functional
T1 sequence (Q9H0H5 whole entry): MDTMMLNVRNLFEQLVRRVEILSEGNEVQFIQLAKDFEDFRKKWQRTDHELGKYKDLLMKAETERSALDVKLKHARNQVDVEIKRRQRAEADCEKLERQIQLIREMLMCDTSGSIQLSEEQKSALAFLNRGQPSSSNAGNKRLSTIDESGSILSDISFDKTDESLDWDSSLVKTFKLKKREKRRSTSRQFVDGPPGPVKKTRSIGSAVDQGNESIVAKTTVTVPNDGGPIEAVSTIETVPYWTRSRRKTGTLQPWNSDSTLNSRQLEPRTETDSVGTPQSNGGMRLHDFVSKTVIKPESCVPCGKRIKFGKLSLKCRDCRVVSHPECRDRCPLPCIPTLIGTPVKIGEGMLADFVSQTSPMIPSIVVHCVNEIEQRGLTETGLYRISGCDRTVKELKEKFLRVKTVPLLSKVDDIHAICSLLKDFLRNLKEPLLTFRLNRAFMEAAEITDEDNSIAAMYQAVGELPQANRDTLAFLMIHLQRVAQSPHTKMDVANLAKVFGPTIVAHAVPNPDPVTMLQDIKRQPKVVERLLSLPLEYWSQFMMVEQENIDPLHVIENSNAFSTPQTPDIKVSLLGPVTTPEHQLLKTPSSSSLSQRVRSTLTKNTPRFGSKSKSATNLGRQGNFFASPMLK

[3] = general mammalian cell viability loss – inhibitor set, cherry-pick, set 2, cytotoxicity control for miR-122 modulator project, dose response (AID 720697); assay type: functional, cell-based
[4] = target: T2, Oxysterols receptor LXR-beta (Homo sapiens, UniProt P55055); assay type: functional, cell-based
T2 sequence (P55055 whole entry): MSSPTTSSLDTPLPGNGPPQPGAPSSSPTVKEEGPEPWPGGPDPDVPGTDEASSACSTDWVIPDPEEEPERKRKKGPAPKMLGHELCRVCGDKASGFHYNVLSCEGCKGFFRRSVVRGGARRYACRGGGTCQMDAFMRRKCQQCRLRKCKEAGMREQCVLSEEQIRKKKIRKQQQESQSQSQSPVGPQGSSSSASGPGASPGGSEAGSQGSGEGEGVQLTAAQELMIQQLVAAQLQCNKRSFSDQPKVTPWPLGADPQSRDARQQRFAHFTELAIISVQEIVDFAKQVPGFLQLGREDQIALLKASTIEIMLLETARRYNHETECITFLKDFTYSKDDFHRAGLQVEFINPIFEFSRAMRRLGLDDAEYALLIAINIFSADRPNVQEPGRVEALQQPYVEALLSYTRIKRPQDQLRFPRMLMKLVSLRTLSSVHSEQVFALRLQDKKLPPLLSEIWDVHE

Paired box protein Pax-8 = Paired box protein Pax-8 (Homo sapiens, UniProt Q06710); assay: PAX8 transcriptional activity inhibition in RMG-I – RMG-I cells, luciferase, cherry-pick, dose response (AID 687027); assay type: functional, cell-based;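 further: luciferase reporter driven by Pax8 target thyroperoxidase promoter measured by SteadyGlo luminescence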
Sequence of Paired box protein Pax-8 (Q06710 whole entry): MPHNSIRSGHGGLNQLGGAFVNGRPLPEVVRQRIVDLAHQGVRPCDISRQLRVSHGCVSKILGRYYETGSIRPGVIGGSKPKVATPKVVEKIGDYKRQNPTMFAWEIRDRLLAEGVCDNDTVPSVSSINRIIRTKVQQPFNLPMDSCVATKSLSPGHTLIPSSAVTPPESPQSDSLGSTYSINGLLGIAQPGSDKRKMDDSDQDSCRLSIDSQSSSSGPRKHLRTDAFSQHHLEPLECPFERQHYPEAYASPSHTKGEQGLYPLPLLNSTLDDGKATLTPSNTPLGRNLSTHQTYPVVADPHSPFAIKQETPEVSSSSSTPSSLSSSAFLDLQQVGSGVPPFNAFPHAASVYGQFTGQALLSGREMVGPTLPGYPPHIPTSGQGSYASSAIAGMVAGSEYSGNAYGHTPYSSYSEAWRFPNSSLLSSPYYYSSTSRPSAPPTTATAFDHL

[5] = A549 cell cytotoxicity, dose response, cytotoxicity control, plate reader, cherry-pick, antagonist series (AID 743412); assay type: functional, cell-based
[6] = blockers of bursicon-stimulated LGR2 cAMP reporter – cell-based, HEK293, CRE-luciferase reporter, cherry pick, set 2, dose response (AID 743343); assay type: functional;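 further: transfected cells were stimulated with diluted bursicon conditioned medium after compound addition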
[7] = target: T2, Oxysterols receptor LXR-beta; assay type: functional, cell-based; remark: listed apart in the source
[8] = blockers of HIV-1 envelope-mediated cell-cell fusion – cherry-pick, dose response (AID 652057); assay type: functional, cell-based
[9] = blockade of melanocortin 4 receptor signaling – cell-based, plate reader, cherry pick, counter-screen for LGR2 antagonist project, dose response (AID 743444); assay type: functional;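 further: transfected HEK 293 cells stimulated with alpha-MSH peptide; potency of inhibitors of the alpha-MSH evoked signal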
[10] = off-target signal loss in HeLa-CEM21 co-culture – HeLa F-luc CTL cells, cherry-picked, counter-screen for HIV-1 Env fusion inhibitor project, dose response (AID 652040); assay type: functional, cell-based;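 further: potency for signal decrease marking cytotoxic or nonspecific inhibition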
[11] = blockers of HIV-1 ZM109 envelope-driven cell-cell fusion – HeLa effector, CEM target cells, luciferase, cherry-pick, dose response (AID 652058); assay type: functional, cell-based;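 further: luciferase signal from HIV-1 Env mediated cell-cell fusion of effector and target cells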
[12] = HIV-1 AD8 envelope cell-cell fusion blockers – cherry-pick, dose response (AID 652062); assay type: functional, cell-based;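 further: luciferase signal from cell-cell fusion driven by HIV-1 clade B AD8 Env; potency is for inhibitors of fusion seen as a drop in luminescence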
[13] = target: T3, Histone-lysine N-methyltransferase NSD2 (Homo sapiens, UniProt O96028); assay type: biochemical
T3 sequence (O96028 whole entry): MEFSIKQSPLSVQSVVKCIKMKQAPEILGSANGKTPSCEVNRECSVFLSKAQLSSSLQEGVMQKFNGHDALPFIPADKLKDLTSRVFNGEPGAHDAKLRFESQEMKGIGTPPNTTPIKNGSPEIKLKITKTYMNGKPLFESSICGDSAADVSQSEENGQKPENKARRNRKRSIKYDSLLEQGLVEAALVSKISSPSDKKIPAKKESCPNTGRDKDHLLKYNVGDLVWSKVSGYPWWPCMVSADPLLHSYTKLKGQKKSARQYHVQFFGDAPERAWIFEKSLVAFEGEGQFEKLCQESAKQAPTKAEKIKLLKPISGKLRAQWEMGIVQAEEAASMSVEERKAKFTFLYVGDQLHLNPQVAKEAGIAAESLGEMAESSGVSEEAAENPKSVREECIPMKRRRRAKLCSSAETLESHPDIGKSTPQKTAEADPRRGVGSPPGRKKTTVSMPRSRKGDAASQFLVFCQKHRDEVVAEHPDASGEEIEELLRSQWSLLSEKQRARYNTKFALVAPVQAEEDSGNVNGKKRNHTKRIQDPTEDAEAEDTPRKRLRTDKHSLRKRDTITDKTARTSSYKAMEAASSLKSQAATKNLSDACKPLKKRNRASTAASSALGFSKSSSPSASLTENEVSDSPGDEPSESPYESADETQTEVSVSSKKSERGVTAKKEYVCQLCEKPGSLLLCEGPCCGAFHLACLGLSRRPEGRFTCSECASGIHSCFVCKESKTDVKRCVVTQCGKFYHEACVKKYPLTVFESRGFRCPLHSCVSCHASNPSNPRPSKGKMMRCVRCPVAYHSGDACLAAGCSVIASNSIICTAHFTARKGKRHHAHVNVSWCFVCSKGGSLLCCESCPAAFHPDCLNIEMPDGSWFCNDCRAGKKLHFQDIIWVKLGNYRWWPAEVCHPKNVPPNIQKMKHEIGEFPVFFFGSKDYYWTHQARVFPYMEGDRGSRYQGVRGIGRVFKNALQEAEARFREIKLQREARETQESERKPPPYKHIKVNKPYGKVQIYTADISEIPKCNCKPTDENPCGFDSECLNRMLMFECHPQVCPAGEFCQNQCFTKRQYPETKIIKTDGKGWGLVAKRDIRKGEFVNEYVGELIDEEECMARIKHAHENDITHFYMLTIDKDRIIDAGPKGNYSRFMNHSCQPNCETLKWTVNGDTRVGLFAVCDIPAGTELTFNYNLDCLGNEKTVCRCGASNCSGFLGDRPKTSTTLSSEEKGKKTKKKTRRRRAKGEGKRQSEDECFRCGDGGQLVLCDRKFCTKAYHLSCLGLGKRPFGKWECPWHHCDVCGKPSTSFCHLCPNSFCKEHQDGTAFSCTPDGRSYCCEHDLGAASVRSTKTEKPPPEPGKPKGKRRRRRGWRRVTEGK

[14] = target: T4, RNA-editing ligase 1, mitochondrial (Trypanosoma brucei brucei, UniProt P86926); assay: inhibition of trypanosome RNA editing ligase – biochemical, fluorescence, Trypanosoma brucei, dose response (AID 1117295); assay type: functional
T4 sequence (P86926 whole entry): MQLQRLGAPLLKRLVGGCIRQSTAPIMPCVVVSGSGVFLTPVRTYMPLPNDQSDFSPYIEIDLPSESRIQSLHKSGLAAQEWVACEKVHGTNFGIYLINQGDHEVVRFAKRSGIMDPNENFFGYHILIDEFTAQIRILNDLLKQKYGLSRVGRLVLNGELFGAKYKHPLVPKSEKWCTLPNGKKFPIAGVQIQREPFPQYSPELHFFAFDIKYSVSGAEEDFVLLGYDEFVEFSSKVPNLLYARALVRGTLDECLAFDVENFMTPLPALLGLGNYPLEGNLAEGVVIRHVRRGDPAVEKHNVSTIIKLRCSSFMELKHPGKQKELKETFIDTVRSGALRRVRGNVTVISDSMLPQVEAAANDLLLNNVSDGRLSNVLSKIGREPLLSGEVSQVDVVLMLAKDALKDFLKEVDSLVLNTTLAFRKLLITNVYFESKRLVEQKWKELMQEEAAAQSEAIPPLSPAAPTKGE

[15] = target: T5, Mannose-6-phosphate isomerase (Homo sapiens, UniProt P34949); assay: MPI inhibition at elevated mannose 6-phosphate – biochemical, fluorescence intensity, high mannose 6-phosphate, primary screen (AID 1220)
T5 sequence (P34949 whole entry): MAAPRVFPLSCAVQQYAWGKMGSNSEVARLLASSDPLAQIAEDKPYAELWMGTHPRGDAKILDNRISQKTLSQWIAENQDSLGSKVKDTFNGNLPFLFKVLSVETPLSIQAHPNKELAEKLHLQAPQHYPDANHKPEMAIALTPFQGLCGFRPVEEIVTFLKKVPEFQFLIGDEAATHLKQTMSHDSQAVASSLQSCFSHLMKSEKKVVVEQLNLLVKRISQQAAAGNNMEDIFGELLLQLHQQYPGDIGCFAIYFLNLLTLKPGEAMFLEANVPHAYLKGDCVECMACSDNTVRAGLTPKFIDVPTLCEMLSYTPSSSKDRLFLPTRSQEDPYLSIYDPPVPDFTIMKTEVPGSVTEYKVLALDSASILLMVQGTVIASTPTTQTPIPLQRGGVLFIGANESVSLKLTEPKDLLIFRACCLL

[16] = target: T5, Mannose-6-phosphate isomerase; assay: MPI enzyme activity inhibition – biochemical, fluorescence intensity, coupled assay, primary screen (AID 1209)

Structure (SMILES): CCN(CC)c1ccc(/C=N/NC(=S)NC)c(O)c1
- IC50 [1]: > 122 µM (inactive)
- IC50 [2]: 58.2 µM (active)

Structure (SMILES): COCCN(C[C@@H]1[C@@H](c2ccccc2)[C@H](CO)N1C(=O)C1CC1)C(C)=O
- AC50 [3]: 0.502 µM (active)

Structure (SMILES): Cc1ccsc1/C=N/Nc1cccc(C(=O)O)c1
- EC50 (cells): > 67.5 µM (inactive)
- AC50 (Paired box protein Pax-8): 4.41 µM (active)
- AC50 [5]: > 52 µM (inactive)
- AC50 [6]: 1.3 µM (active)
- EC50 [7]: > 67.5 µM (inactive)
- AC50 [8]: 1.32 µM (active)
- IC50 [2]: 92.5 µM (active)
- AC50 [9]: 1.14 µM (active)
- AC50 [10]: 2.45 µM (active)
- AC50 [11]: 7.12 µM (active)
- AC50 [12]: 2.65 µM (active)

Structure (SMILES): CNCCCC12CCC(c3ccccc31)c1ccccc12 [MAPROTILINE]
- AC50 [13]: > 20 µM (inactive)

Structure (SMILES): CN(C)c1cccc(-c2cnc(N3CCC(C(N)=O)CC3)s2)c1
- EC50 [4]: > 67.5 µM (inactive)

Now from value to compound:

- EC50 [4]: > 67.5 µM (inactive)
Structure (SMILES): COC(=O)c1sc2nc3c(cc2c1N)CCCC3

- EC50 [4]: > 67.6 µM (inactive)
Structure (SMILES): Cc1ccc(-c2nnc(NC3CCCC3)s2)cc1

- IC50 [14]: > 96.6 µM (inactive)
Structure (SMILES): COC(=O)C1=C(C)N(Cc2cccc(C(F)(F)F)c2)C(NCc2cc(OC)c(OC)c(OC)c2)=NC1CCc1ccccc1 (configuration not stated)

- AC50 [13]: 4.96 µM (active)
- IC50 [15]: 7.13 µM (active)
- IC50 [16]: 5.12 µM (active)
Structure (SMILES): CN(Cc1c(O)ccc2c1oc(=O)c1ccccc12)C1CCCCC1

— ChEMBL document CHEMBL1201862, “PubChem BioAssay data set” (2004)
